# Measured values reported in ChEMBL document CHEMBL6127037, “Design, synthesis, and biological evaluation of imidazolylacetophenone oxime derivatives as novel brain-penetrant agents for Alzheimer's disease treatment” (Eur J Med Chem, 2024).
# Activity calls are given as the source filed them. The calls are words filed in the database; no cut-off is given here.
# What was measured:
# [1] = Cytotoxicity against LPS stimulated mouse BV-2 cells assessed as cell survival at 10 uM by MTT assay; type: toxicity, cell-based; conditions: LPS-stimulated BV-2 cells, read-out: Activity
# BV-2 [2] = assay: Anti-neuroinflammatory activity against LPS-stimulated mouse BV-2 cells assessed as inhibition of NO production at 10 uM; type: functional; design: scale not given: the % may be the effect or the level left
# BV-2 [3] = assay: Anti-neuroinflammatory activity against LPS-stimulated mouse BV-2 cells assessed as inhibition of NO production at 1 uM; type: functional; design: scale not given: the % may be the effect or the level left
# PC12 = assay: Neuroprotective activity against 6-OHDA induced oxidative damage in […] cells assessed as increase in cell viability preincubated for 4 hrs followed by 6-OHDA stimulation and measured after 24 hrs by MTT assay (reference value: 48.6%); type: functional, cell-based; conditions: Rattus norvegicus, dose 1-10 µM, time 28.0 hrs
# BV-2 [4] = assay: Anti-neuroinflammatory activity against LPS-stimulated mouse BV-2 cells assessed as inhibition of NO production; type: functional, cell-based
# [5] = Cytotoxicity against […] cells assessed as cell survival at 20 uM by MTT assay; type: toxicity, cell-based, Rattus norvegicus; conditions: read-out: Survival
# BV-2 [6] = assay: Antiinflammatory activity against LPS induced mouse BV-2 cells assessed as decrease in COX2 expression incubated for 24 hrs by Western blotting analysis; type: functional, cell-based; conditions: dose 0.1-2.5 µM
# BV-2 [7] = assay: Antiinflammatory activity against LPS induced mouse BV-2 cells assessed as decrease in TNFalpha expression incubated for 24 hrs by ELISA; type: functional, cell-based; conditions: dose 0.1-2.5 µM
# [8] = biological target: Amyloid-beta precursor protein (Homo sapiens) (UniProt P05067); assay: Inhibition of self-induced amyloid beta (1 to 42 residues) (unknown origin) aggregation at 5 to 20 uM by thioflavin T based fluorescence analysis; conditions: dose 5-20 µM
# [9] = Cytotoxicity against mouse HT-22 cells assessed as cell survival at 20 uM by MTT assay; type: toxicity, cell-based; conditions: read-out: Survival
# BV-2 [10] = assay: Antiinflammatory activity against LPS induced mouse BV-2 cells assessed as increase in arginase-1 expression at 0.5 to 2.5 uM incubated for 24 hrs by ELISA; type: functional, cell-based; conditions: dose 0.5-2.5 µM
# HT-22 = assay: Neuroprotective activity against RSL3 induced ferroptosis in mouse HT-22 cells assessed as increase in cell viability at 10 uM preincubated for 4 hrs followed by RSL3 stimulation and measured after 24 hrs by MTT assay (reference value: 52.1%); type: functional; conditions: time 28 hrs
# BV-2 [11] = assay: Antiinflammatory activity against LPS induced mouse BV-2 cells assessed as decrease in PGE2 expression incubated for 24 hrs by ELISA; type: functional, cell-based; conditions: dose 0.1-2.5 µM
# BV-2 [12] = assay: Antiinflammatory activity against LPS induced mouse BV-2 cells assessed as increase in IL-10 expression at 0.5 to 2.5 uM incubated for 24 hrs by ELISA; type: functional, cell-based; conditions: dose 0.5-2.5 µM
# BV-2 [13] = assay: Antiinflammatory activity against LPS induced mouse BV-2 cells assessed as decrease in iNOS expression incubated for 24 hrs by Western blotting analysis; type: functional, cell-based; conditions: dose 0.1-2.5 µM
# [14] = biological target: Acetylcholinesterase (Electrophorus electricus) (UniProt O42275); assay: Inhibition of electric eel AChE at 20 uM using […] as substrate pretreated for 20 mins prior to DTNB addition for 30 mins followed by substrate addition and measured after 45 mins by Ellman's method relative to control; conditions: time 95.0 min
# [15] = biological target: Amyloid-beta precursor protein (Homo sapiens) (UniProt P05067); assay: Inhibition of self-induced amyloid beta (1 to 42 residues) (unknown origin) aggregation at 20 uM by thioflavin T based fluorescence analysis
# Acetylcholinesterase (Electrophorus electricus), sequence (O42275 24-633 limits assumed): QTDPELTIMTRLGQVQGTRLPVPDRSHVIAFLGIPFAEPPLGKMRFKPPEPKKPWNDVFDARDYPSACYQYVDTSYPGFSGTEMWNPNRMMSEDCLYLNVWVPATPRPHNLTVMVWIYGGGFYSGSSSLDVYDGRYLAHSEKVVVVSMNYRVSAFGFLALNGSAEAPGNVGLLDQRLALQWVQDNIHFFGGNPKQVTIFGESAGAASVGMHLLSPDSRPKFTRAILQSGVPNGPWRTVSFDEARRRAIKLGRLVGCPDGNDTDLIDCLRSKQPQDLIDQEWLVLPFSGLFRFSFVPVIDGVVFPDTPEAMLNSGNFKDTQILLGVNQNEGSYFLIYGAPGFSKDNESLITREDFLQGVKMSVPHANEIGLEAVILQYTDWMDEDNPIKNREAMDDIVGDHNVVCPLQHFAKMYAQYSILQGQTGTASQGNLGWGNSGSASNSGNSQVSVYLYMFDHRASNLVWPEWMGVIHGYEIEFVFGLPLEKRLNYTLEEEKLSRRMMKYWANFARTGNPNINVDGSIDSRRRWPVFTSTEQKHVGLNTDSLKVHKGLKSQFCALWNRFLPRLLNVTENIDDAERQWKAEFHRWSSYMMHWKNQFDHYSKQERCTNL
# Amyloid-beta precursor protein (Homo sapiens), sequence (P05067 whole entry, the tested form may be a part): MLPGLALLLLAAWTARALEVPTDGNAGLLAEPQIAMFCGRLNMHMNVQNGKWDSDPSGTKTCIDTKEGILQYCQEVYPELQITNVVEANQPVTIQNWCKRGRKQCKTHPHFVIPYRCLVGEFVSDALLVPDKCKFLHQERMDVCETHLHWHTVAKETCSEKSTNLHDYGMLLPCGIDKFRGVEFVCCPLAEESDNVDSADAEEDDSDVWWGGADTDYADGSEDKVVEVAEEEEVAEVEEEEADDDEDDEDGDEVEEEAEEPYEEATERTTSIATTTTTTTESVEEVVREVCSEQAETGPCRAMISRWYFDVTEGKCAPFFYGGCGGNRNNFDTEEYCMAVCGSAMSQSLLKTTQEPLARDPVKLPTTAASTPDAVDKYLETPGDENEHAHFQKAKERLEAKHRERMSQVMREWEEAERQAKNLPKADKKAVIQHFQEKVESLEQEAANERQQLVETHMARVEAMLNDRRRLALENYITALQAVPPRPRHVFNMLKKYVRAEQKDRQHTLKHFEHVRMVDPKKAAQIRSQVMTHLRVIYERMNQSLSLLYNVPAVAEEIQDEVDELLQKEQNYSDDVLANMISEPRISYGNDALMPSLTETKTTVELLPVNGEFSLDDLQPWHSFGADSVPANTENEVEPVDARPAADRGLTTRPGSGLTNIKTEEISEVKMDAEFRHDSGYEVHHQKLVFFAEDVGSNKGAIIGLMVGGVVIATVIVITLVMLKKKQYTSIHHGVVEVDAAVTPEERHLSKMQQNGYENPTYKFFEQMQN
Compound,viability at 10 µM [1] [%],Activity (BV-2 [2]) [%],Activity (BV-2 [3]) [%],also measured
COC(Cn1ccnc1)c1ccc2c(c1)OCO2 (racemic),76.1,28,17.9,–
OC(Cn1ccnc1)c1ccc2c(c1)OCO2 (racemic),97.1,68.9,21.4,–
c1cn(CCc2ccc3c(c2)OCO3)cn1,93.3,47.9,19.6,–
COC(=O)CCCCCO/N=C(\Cn1ccnc1)c1ccc2c(c1)OCO2,116,76,35.4,–
CN(C)c1ccc(/C(Cn2ccnc2)=N/OC(=O)/C=C/c2ccc3c(c2)OCO3)cc1,96.7,34.2,22.2,Activity (PC12): Dose-Dependent Effect; EC50 (BV-2 [4]): 15700 nM; viability at 20 µM [5]: > 95%
C=C(C)CO/N=C(\Cn1ccnc1)c1ccc(N(C)C)cc1,98.6,46.3,28.1,–
C#CCO/N=C(\Cn1ccnc1)c1ccc(C(=O)NO)cc1,109,70.5,36.2,Activity (PC12): Dose-Dependent Effect; EC50 (BV-2 [4]): 5610 nM; viability at 20 µM [5]: > 95%
CN(C)c1ccc(/C(Cn2ccnc2)=N/OCc2ccccc2)cc1,97.3,48.7,27.6,–
O=C(Cn1ccnc1)c1ccc2c(c1)OCO2,97.9,61.6,21.5,–
FCCO/N=C(\Cn1ccnc1)c1ccc2c(c1)OCO2,116,99.4,69.5,Activity (BV-2 [6]): Dose-Dependent Effect; Activity (BV-2 [7]): Dose-Dependent Effect; inhibition [8]: Active; viability at 20 µM [9]: > 90%; Activity (PC12): Dose-Dependent Effect; Activity (BV-2 [10]): Active; Activity (HT-22): 66.6%; EC50 (BV-2 [4]): 490 nM; Activity (BV-2 [11]): Dose-Dependent Effect; Activity (BV-2 [12]): Active; Activity (BV-2 [13]): Dose-Dependent Effect; viability at 20 µM [5]: > 95%; inhibition [14]: 60.1%
FCCCO/N=C(\Cn1ccnc1)c1ccc2c(c1)OCO2,87.7,65,31.1,–
O=c1c(O)c(-c2ccc(O)c(O)c2)oc2cc(O)cc(O)c12 [QUERCETIN],91.3,52.8,–,–
C#CCO/N=C(/Cn1ccnc1)c1ccc2c(c1)OCO2,98.4,25.5,13.4,Activity (PC12): Dose-Dependent Effect; EC50 (BV-2 [4]): > 20000 nM; viability at 20 µM [5]: > 95%
C#CCO/N=C(\Cn1ccnc1)c1ccc(C(=O)OC)cc1,105,72.7,36,–
C#CCO/N=C(\Cn1ccnc1)c1ccc(N(C)C)cc1,103,49.6,30.9,inhibition [8]: Active; viability at 20 µM [9]: > 90%; Activity (PC12): Dose-Dependent Effect; Activity (HT-22): 62.5%; EC50 (BV-2 [4]): 6780 nM; viability at 20 µM [5]: > 95%; inhibition [14]: 70.3%
COc1cc(/C=C/C(=O)O/N=C(\Cn2ccnc2)c2ccc3c(c2)OCO3)ccc1O,89.4,67.6,39.4,–

Compound,viability at 10 µM [1] [%],Activity (BV-2 [2]) [%],Activity (BV-2 [3]) [%],also measured
O=C(O/N=C(\Cn1ccnc1)c1ccc2c(c1)OCO2)C12CC3CC(CC(C3)C1)C2,113,88.4,44.1,–
O=C(CCCC[C@@H]1CCSS1)O/N=C(\Cn1ccnc1)c1ccc2c(c1)OCO2,97.5,99.7,51.8,viability at 20 µM [9]: > 90%; Activity (PC12): Dose-Dependent Effect; Activity (HT-22): 67.7%; EC50 (BV-2 [4]): 760 nM; inhibition [15]: inactive; viability at 20 µM [5]: > 95%; inhibition [14]: 54.9%
CN(C)c1ccc(/C(Cn2ccnc2)=N/OC/C=C/c2ccccc2)cc1,98.1,40.7,22.5,–
COc1ccc(/C=C/C(=O)O/N=C(\Cn2ccnc2)c2ccc3c(c2)OCO3)cc1,95.9,91.3,45.6,–
Cc1c(CO)ncn1CC(=O)c1ccc2c(c1)OCO2,99.8,37.7,27.4,–
C#CCO/N=C(\Cn1ccnc1)c1ccc2c(c1)OCO2,95.9,84.5,45.2,Activity (PC12): Dose-Dependent Effect; EC50 (BV-2 [4]): 1180 nM; viability at 20 µM [5]: > 95%
CN(C)c1ccc(/C(Cn2ccnc2)=N/OC(=O)CCc2ccccc2)cc1,92.5,31.4,31.5,–
C#CCO/N=C(\Cn1ccnc1)c1ccc(C(=O)OCC)cc1,115,73.5,34.8,–
C#CCO/N=C(\Cn1cnc(CO)c1C)c1ccc2c(c1)OCO2,75.8,48.7,27.6,–
O=C(/C=C/c1ccc2c(c1)OCO2)O/N=C(\Cn1ccnc1)c1ccc2c(c1)OCO2,85.2,73,35.8,–
O=C(CCCCCO/N=C(\Cn1ccnc1)c1ccc2c(c1)OCO2)NO,111,82.9,42.7,inhibition [8]: Active; viability at 20 µM [9]: > 90%; Activity (PC12): Dose-Dependent Effect; Activity (HT-22): 66.7%; EC50 (BV-2 [4]): 1090 nM; viability at 20 µM [5]: > 95%
CN(C)c1ccc(/C(Cn2ccnc2)=N/OC(=O)/C=C/c2ccccc2)cc1,92.8,41.8,39.2,–
CN(C)c1ccc(/C(Cn2ccnc2)=N/OC(=O)/C=C/c2ccc(Cl)cc2)cc1,85.6,54.1,41.2,–
CN(C)c1ccc(/C(Cn2ccnc2)=N/OC(=O)/C=C/c2ccccc2Cl)cc1,105,65.8,38.8,–
FCCOCCOCCO/N=C(\Cn1ccnc1)c1ccc2c(c1)OCO2,99.9,53.9,24.4,–
